Data on 51 compounds can be found in the SangsterLogP compilation.

Broadly, the logD is lipophilicity at a set pH, counting ionised and neutral species. A higher logD goes with a more lipophilic compound.

Where a SMILES comes first, the peptide text is derived from it.

The nature of one series: method code SF-AS, from DOI: 10.1002/qsar.19900090302. The settings on record: pH 7.0.
`CC(=O)N[C@@H](CO)C(=O)N[C@@H](Cc1ccccc1)C(N)=O` gave a logD of -0.79.
With `CC(=O)N[C@@H](Cc1c[nH]c2ccccc12)C(=O)NCC(=O)N[C@@H](Cc1ccccc1)C(N)=O`, the logD was found to be 0.99.
On the same count and under the same terms, next, `CC(=O)N[C@@H](Cc1ccc(O)cc1)C(=O)N[C@H](C(N)=O)C(C)C`: -0.2; `CC(=O)N[C@@H](Cc1ccccc1)C(=O)NCC(=O)N[C@@H](CC(C)C)C(N)=O`: 0.6; `CC(=O)N[C@@H](Cc1ccccc1)C(=O)N[C@@H](CCC(N)=O)C(N)=O`: -1.03.
As to `CC(=O)N[C@@H](C)C(=O)NCC(=O)N[C@@H](Cc1ccccc1)C(N)=O` (Ac-Ala-Gly-Phe-NH2), the log distribution coefficient (logD) is -0.71.
Turning to `CC(=O)N[C@@H](C)C(=O)N[C@@H](Cc1ccc(O)cc1)C(=O)N[C@@H](CC(C)C)C(N)=O` (Ac-Ala-Tyr-Leu-NH2), the log distribution coefficient (logD) was -0.04.
Consider `CC(=O)N[C@@H](C)C(=O)N[C@@H](Cc1ccc(O)cc1)C(=O)N[C@@H](Cc1ccccc1)C(N)=O` (Ac-Ala-Tyr-Phe-NH2), for which the pH-dependent lipophilicity (logD) worked out at 0.26.
Turning to `CC(=O)NC(CC(N)=O)C(=O)NC(Cc1ccccc1)C(N)=O` (stereo not drawn) (Ac-Asn-Phe-NH2; configuration not given here), the logD was -1.14.
For `CC(=O)N[C@@H](CCC(N)=O)C(=O)N[C@@H](Cc1ccccc1)C(N)=O` (Ac-Gln-Phe-NH2), the logD was -1.14.
Still for that read-out and setting: as for `CC(=O)NCC(=O)N[C@@H](Cc1ccccc1)C(N)=O` (Ac-Gly-Phe-NH2), the figure is -0.56; as for `CC[C@H](C)[C@H](NC(C)=O)C(=O)N[C@@H](Cc1ccccc1)C(=O)N[C@@H](C)C(N)=O` (Ac-Ile-Phe-Ala-NH2), 0.52; as for `CC(=O)N[C@@H](CC(C)C)C(=O)N[C@@H](CO)C(=O)N[C@@H](Cc1ccccc1)C(N)=O` (Ac-Leu-Ser-Phe-NH2), 0.23.
Compound `CC(=O)N[C@@H](Cc1ccccc1)C(=O)NCC(N)=O` (Ac-Phe-Gly-NH2) yielded a log distribution coefficient (logD) of -0.5.
`CC[C@H](C)[C@H](NC(=O)[C@H](Cc1ccccc1)NC(C)=O)C(=O)NCC(N)=O` (Ac-Phe-Ile-Gly-NH2) had a pH-dependent lipophilicity (logD) of 0.34.
On to `CC(=O)N[C@@H](Cc1ccccc1)C(=O)N[C@H](C(N)=O)C(C)C` (Ac-Phe-Val-NH2), for which the logD is 0.43.
The same measure, in the same setting: next, `CC(=O)N[C@@H](Cc1c[nH]c2ccccc12)C(=O)N[C@@H](C)C(=O)N[C@@H](C)C(N)=O` (Ac-Trp-Ala-Ala-NH2): -0.31; `CC(=O)N[C@@H](Cc1c[nH]c2ccccc12)C(=O)N[C@@H](C)C(=O)N[C@H](C(N)=O)C(C)C` (Ac-Trp-Ala-Val-NH2): 0.36.
Regarding `CC[C@H](C)[C@H](NC(=O)[C@H](Cc1c[nH]c2ccccc12)NC(C)=O)C(=O)NCC(N)=O` (Ac-Trp-Ile-Gly-NH2), the pH-dependent lipophilicity (logD) is 0.62.
The compound `CC(=O)N[C@@H](Cc1c[nH]c2ccccc12)C(=O)N[C@H](C(N)=O)C(C)C` (Ac-Trp-Val-NH2) gave a logD of 0.73.
Compound `CC(=O)N[C@@H](Cc1ccc(O)cc1)C(=O)N[C@@H](CC(C)C)C(N)=O` (Ac-Tyr-Leu-NH2) returned a logD of 0.32.
Still for that read-out and setting: next, `CC(=O)N[C@@H](Cc1ccc(O)cc1)C(=O)N[C@@H](Cc1ccccc1)C(N)=O` (Ac-Tyr-Phe-NH2): 0.54.
The same measure, in the same setting: next, `CC(=O)N[C@H](C(=O)N[C@@H](Cc1ccccc1)C(=O)N[C@@H](C)C(N)=O)C(C)C` (Ac-Val-Phe-Ala-NH2): 0.06.

The nature of another series: method code SF-HPLC, from DOI: 10.1002/qsar.19900090302. The following applies: pH 7.0.
`CC(=O)NCC(=O)N[C@@H](CC(C)C)C(N)=O`: the log distribution coefficient (logD) is -0.78.
`CC(=O)N[C@@H](CC(C)C)C(=O)N[C@@H](CC(N)=O)C(N)=O` gave a log distribution coefficient (logD) of -1.3.
The same measure, in the same setting: as for `CC(=O)N[C@H](C(=O)N[C@@H](C)C(=O)N[C@@H](C)C(N)=O)C(C)C`, the figure is -1.4; as for `CC[C@H](C)[C@H](NC(=O)[C@@H](NC(=O)[C@H](C)NC(C)=O)C(C)C)C(N)=O`, -0.2.
Still for that read-out and setting: next, `CC(=O)N[C@@H](C)C(=O)N[C@@H](CC(C)C)C(N)=O` (Ac-Ala-Leu-NH2): -0.54; `CC(=O)N[C@@H](C)C(=O)N[C@@H](CC(C)C)C(=O)N[C@H](C(N)=O)C(C)C` (Ac-Ala-Leu-Val-NH2): -0.14.
Same read-out and setting: as for `CC(=O)N[C@@H](C)C(=O)N[C@H](C(N)=O)C(C)C` (Ac-Ala-Val-NH2), the figure is -1.13.
`CC[C@H](C)[C@H](NC(=O)[C@H](CC(N)=O)NC(C)=O)C(N)=O` (Ac-Asn-Ile-NH2) yielded a logD of -1.43.
Consider `CC(=O)NC(CC(N)=O)C(=O)NC(C(N)=O)C(C)C` (stereo not drawn) (Ac-Asn-Val-NH2; configuration not given here), for which the logD is -1.85.
Regarding `CC(=O)NC(CCC(N)=O)C(=O)NC(CC(C)C)C(N)=O` (stereo not drawn) (Ac-Gln-Leu-NH2; configuration not given here), the log distribution coefficient (logD) was -1.32.
Compound `CC(=O)NC(CCC(N)=O)C(=O)NC(C(N)=O)C(C)C` (stereo not drawn) (Ac-Gln-Val-NH2; configuration not given here) displayed a log distribution coefficient (logD) of -1.85.
Same read-out and setting: as for `CC(=O)NCC(=O)N[C@@H](C)C(=O)N[C@H](C(N)=O)C(C)C` (Ac-Gly-Ala-Val-NH2), the figure is -1.56; as for `CC(=O)NCC(=O)N[C@@H](CC(C)C)C(=O)NCC(N)=O` (Ac-Gly-Leu-Gly-NH2), -1.23.
Compound `CC(=O)NCC(=O)N[C@H](C(N)=O)C(C)C` (Ac-Gly-Val-NH2) registered a log distribution coefficient (logD) of -1.33.
With `CC[C@H](C)[C@H](NC(C)=O)C(=O)N[C@@H](CC(N)=O)C(N)=O` (Ac-Ile-Asn-NH2), the logD was -1.41.
Take `CC[C@H](C)[C@H](NC(C)=O)C(=O)N[C@H](C(N)=O)C(C)C` (Ac-Ile-Val-NH2): the logD is 0.16.
Compound `CC[C@H](C)[C@H](NC(=O)[C@H](CC(C)C)NC(C)=O)C(N)=O` (Ac-Leu-Ile-NH2) registered a logD of 0.68.
`CC(=O)N[C@@H](CC(C)C)C(=O)N[C@H](C(=O)N[C@@H](CC(C)C)C(N)=O)[C@@H](C)O` (Ac-Leu-Thr-Leu-NH2) showed a logD of 0.24.
The same measure, in the same setting: as for `CC(=O)N[C@@H](CC(C)C)C(=O)N[C@H](C(N)=O)C(C)C` (Ac-Leu-Val-NH2), the figure is 0.26; as for `CC(=O)N[C@@H](CO)C(=O)N[C@H](C(N)=O)C(C)C` (Ac-Ser-Val-NH2), -1.53; as for `CC[C@H](C)[C@H](NC(=O)[C@@H](NC(C)=O)[C@@H](C)O)C(N)=O` (Ac-Thr-Ile-NH2), -0.86.
The same measure, in the same setting: next, `CC(=O)N[C@H](C(=O)N[C@H](C(N)=O)C(C)C)[C@@H](C)O` (Ac-Thr-Val-NH2): -1.25.
As to `CC(=O)N[C@H](C(=O)N[C@@H](C)C(N)=O)C(C)C` (Ac-Val-Ala-NH2), the logD is -1.14.
In turn, `CC(=O)N[C@H](C(=O)N[C@@H](C)C(=O)N[C@H](C(N)=O)C(C)C)C(C)C` (Ac-Val-Ala-Val-NH2) showed a logD of -0.67.
Regarding `CC(=O)NC(C(=O)NC(CCC(N)=O)C(N)=O)C(C)C` (stereo not drawn) (Ac-Val-Gln-NH2; configuration not given here), the logD was -1.82.
On to `CC[C@H](C)[C@H](NC(=O)[C@@H](NC(C)=O)C(C)C)C(=O)NCC(N)=O` (Ac-Val-Ile-Gly-NH2), for which the log distribution coefficient (logD) is -0.45.
On the same count and under the same terms, as for `CC[C@H](C)[C@H](NC(=O)[C@@H](NC(=O)[C@@H](NC(C)=O)C(C)C)C(C)C)C(N)=O` (Ac-Val-Val-Ile-NH2), the figure is 0.49; as for `CC(=O)N[C@H](C(=O)N[C@H](C(N)=O)C(C)C)C(C)C` (Ac-Val-Val-NH2), -0.32.
